{"source": "patent US12227534B2", "about": "“Method for preparing nicotinamide mononucleotide by using nicotinamide as raw material” (BONTAC BIO-ENGINEERING(SHENZHEN) CO., LTD., priority 2020, dated 2025)", "key": {"[1]": {"experiment": "Long-term stability of nicotinamide ribose solution after pH adjustment with hydrochloric acid", "type": "physicochemical", "conditions": "storage temperature 0-4° C., storage time 45 days", "description": "(§1) The results of various parameters in the preparation of the intermediate product nicotinamide ribose solution are shown in Table 1 to Table 5."}, "[2]": {"experiment": "Long-term stability of nicotinamide ribose solution after pH adjustment with sodium bicarbonate", "type": "physicochemical", "conditions": "2-4° C., storage time 45 days", "description": "as §1"}}}
{"substance": "nicotinamide ribose [nicotinamide ribose solution]", "values": [{"measurement": "Stability (degradation)", "setting": "[1]; pH 4 (hydrochloric acid)", "value": 1.3, "unit": "%"}, {"measurement": "Stability (degradation)", "setting": "[1]; pH 5 (hydrochloric acid)", "value": 2.1, "unit": "%"}, {"measurement": "Stability (degradation)", "setting": "[2]; pH 4 (sodium bicarbonate)", "value": 2.4, "unit": "%"}, {"measurement": "Stability (degradation)", "setting": "[2]; pH 5 (sodium bicarbonate)", "value": 3.7, "unit": "%"}]}
